ChEMBL document CHEMBL1131935, “Novel cytokine release inhibitors. Part IV: analogs of podocarpic acid” (Bioorg Med Chem Lett, 1999)
pIC50: −log10 of the molar value.

Key:
Homo sapiens [1] = organism: Homo sapiens; assay: Inhibition of IL1-beta release stimulated with LPS in human monocytes; format: functional
Homo sapiens [2] = organism: Homo sapiens; assay: Compound tested for the inhibition of IL1-beta release stimulated with LPS in human monocytes was determined at a concentration of 1 uM; format: functional

pIC50 (Homo sapiens [1]) | SMILES | inhibition at 1 µM (Homo sapiens [2]) [%]
6.10 | CCCc1c(C(=O)OC)c(C(=O)OC)cc2c1C(=O)CC1[C@@](C)(C(=O)OC)CCC[C@]21C (stereo partly drawn) | 
6.52 | CCCc1c2c(cc(OC)c1C(=O)OC)[C@@]1(C)CCC[C@](C)(C(=O)OC)[C@@H]1C=C2 | 
6.10 | COC(=O)c1cc2c(cc1Br)C=C[C@H]1[C@@](C)(C(=O)OC)CCC[C@]21C | 
7.00 | COC(=O)[C@@]1(C)CCC[C@]2(C)c3cc(OC)c(O)cc3C=C[C@@H]12 | 
7.00 | COC(=O)c1cc2c(cc1C(=O)OC)[C@@]1(C)CCC[C@](C)(C(=O)OC)C1C=C2 (stereo partly drawn) | 
6.96 | COC(=O)c1cc2c(c(C(C)=O)c1C(=O)OC)CCC1[C@@](C)(C(=O)OC)CCC[C@]21C (stereo partly drawn) | 
6.59 | COC(=O)c1cc2c(cc1OC)[C@@]1(C)CCC[C@](C)(C(=O)OC)[C@@H]1C(=O)C2 | 
6.40 | COC(=O)Cc1cc2c(cc1C(=O)OC)[C@@]1(C)CCC[C@](C)(C(=O)OC)[C@@H]1C=C2 | 
6.96 | CCCc1c2c(cc(C(=O)OC)c1C(=O)OC)[C@@]1(C)CCC[C@](C)(C(=O)OC)C1C=C2 (stereo partly drawn) | 
6.96 | COC(=O)c1cc2c(cc1C(=O)OC)[C@@]1(C)CCC[C@](C)(C(=O)O)C1C=C2 (stereo partly drawn) | 
7.00 | COC(=O)c1cc2c(cc1OC)C=C[C@H]1[C@@](C)(C(=O)OC)CCC[C@]21C | 
6.80 | COC(=O)c1cc2c(cc1OC)[C@@]1(C)CCC[C@](C)(C(=O)OC)[C@@H]1C=C2 | 
6.40 | COC(=O)c1cc2c(c(Br)c1C(=O)OC)CCC1[C@@](C)(C(=O)OC)CCC[C@]21C (stereo partly drawn) | 
 | COC(=O)[C@@]1(C)CCC[C@]2(C)c3cc(O)c(O)cc3CCC12 (stereo partly drawn) | 42
 | COC(=O)[C@@]1(C)CCC[C@]2(C)c3cc(O)c(C(C)C)cc3C=C[C@@H]12 | 38
6.82 | CCOC(=O)CCCNC(=O)[C@@]1(C)CCC[C@]2(C)c3cc(C(=O)OC)c(C(=O)OC)cc3C=CC12 (stereo partly drawn) | 
6.96 | COC(=O)[C@@]1(C)CCC[C@]2(C)c3cc(C(=O)OC(C)C)c(C(=O)OC(C)C)cc3C=CC12 (stereo partly drawn) | 
6.70 | C=CCc1c2c(cc(C(=O)OC)c1C(=O)OC)[C@@]1(C)CCC[C@](C)(C(=O)OC)C1CC2 (stereo partly drawn) | 
6.80 | COC(=O)C[C@@]1(C)CCC[C@]2(C)c3cc(C(=O)OC)c(C(=O)OC)cc3C=CC12 (stereo partly drawn) | 
6.96 | COC(=O)c1cc2c(cc1C(=O)OC)[C@@]1(C)CCC[C@](C)(C(=O)N3CCOCC3)C1C=C2 (stereo partly drawn) | 
 | COC(=O)[C@@]1(C)CCC[C@]2(C)c3cc(O)ccc3CCC12 (stereo partly drawn) | 15
6.85 | COC(=O)c1cc2c(c(C)c1C(=O)OC)C=CC1[C@@](C)(C(=O)OC)CCC[C@]21C (stereo partly drawn) | 
7.00 | COc1cc2c(c(C)c1O)C=C[C@H]1[C@@](C)(C(=O)O)CCC[C@]21C | 
6.70 | COC(=O)c1cc2c(c(C)c1C(=O)OC)C(C)=CC1[C@@](C)(C(=O)OC)CCC[C@]21C (stereo partly drawn) | 
6.27 | COC(=O)[C@@]1(C)CCC[C@]2(C)c3cc(C(=O)OC(C)(C)C)c(C(=O)OC(C)(C)C)cc3C=CC12 (stereo partly drawn) | 
7.00 | COC(=O)c1cc2c(cc1NS(C)(=O)=O)C=C[C@H]1[C@@](C)(C(=O)OC)CCC[C@]21C | 
5.85 | COC(=O)[C@@]1(C)CCC[C@]2(C)c3cc(OC)c(O)cc3CC[C@@H]12 | 
6.52 | CCCc1c2c(cc(C(=O)OC)c1C(=O)OC)[C@@]1(C)CCC[C@](C)(C(=O)OC)C1CC2 (stereo partly drawn) | 
6.00 | COC(=O)c1cc2c(cc1C(=O)OC)[C@@]1(C)CCC[C@](C)(C(=O)OC)C1CC2=O (stereo partly drawn) | 
 | COC(=O)[C@@]1(C)CCC[C@]2(C)c3cc(O)c([N+](=O)[O-])cc3C=C[C@@H]12 | 5

SMILES | pIC50 (Homo sapiens [1]) | inhibition at 1 µM (Homo sapiens [2]) [%]
COC(=O)[C@@]1(C)CCC[C@]2(C)c3cc(O)c(OC)cc3C=C[C@@H]12 | 7.00 | 
COC(=O)[C@@]1(C)CCC[C@]2(C)c3cc(O)c(N)cc3C=C[C@@H]12 | 6.82 | 
COC(=O)[C@@]1(C)CCC[C@]2(C)c3cc(O)c(O)cc3C=CC12 (stereo partly drawn) | 7.00 | 
